Measurements published in PMC9737184, “In Vitro Study of Cytotoxic Mechanisms of Alkylphospholipids and Alkyltriazoles in Acute Lymphoblastic Leukemia Models” (Molecules, 2022).

Columns and labels:
cathepsin B [1] = molecular target: T1, cathepsin B (Homo sapiens, UniProt P07858); assay: Cathepsin B inhibition, Z-FR-AMC fluorogenic assay (IC50); type: biochemical; conditions: Z-FR-AMC 50 µM, pH 5.5, 37 °C
Procedure: (§1) Cathepsin L was assayed in a reaction buffer of 100 mM sodium acetate, containing 100 mM NaCl, 5 mM EDTA and 20% glycerol at pH 5.5. Cathepsin B was assayed in the same buffer supplemented with 0.01% Triton X-100. The enzymes were pre-incubated in the presence of 3 mM DTT for 5 min at 37 °C in a 1 mL final volume with constant stirring. The enzyme activities were monitored using the fluorogenic probe Z-FR-AMC (50 µM and 5 µM for cathepsin B and L, respectively), and the fluorescence was monitored by spectrofluorometry using the fluorometer RF6000 (Shimadzu, Tokyo, Japan) set to λEx = 360 nm and λEm = 480 nm. […] The data were analyzed by Grafit 5.0.13 software using Equation (1). (1) y=100%/1+(x/IC50)^S

cathepsin L [2] = molecular target: T2, cathepsin L (Homo sapiens, UniProt P07711); assay: Cathepsin L inhibition, Z-FR-AMC fluorogenic assay (IC50); type: biochemical; conditions: Z-FR-AMC 5 µM, pH 5.5, 37 °C
Procedure: as §1

[3] = test system: Jurkat and CCRF-CEM lineages; assay: Annexin V-FITC/PI cytotoxicity, EC50 span over ALL lineages (discussion); type: cell-based; conditions: Homo sapiens
Procedure: (§2) Figure 2 Effects of the alkyltriazole compounds C9 and C21 on the viability of different myeloblastic and lymphoblastic leukemia lineages. Lineages cells at 2 × 10^5 cells/mL were used. Cells were exposed to concentrations ranging from 0 to 150 µM for 24 h, and cell viability was assessed by annexin V-FITC/PI staining and flow cytometric analysis. (A) Chemical structure of C9, with a hydroxyl group and an iodine atom as substituents.
(§3) Human leukemia cell lines (Kasumi-1, K-562, ARH-77, Jurkat and CCRF-CEM, see Table S2) were purchased from American Type Culture Collection-ATCC (Manassas, VA, USA). The cells were maintained in RPMI 1640 (Sigma-Aldrich, Burlington, MA, USA) culture medium, supplemented with 10% fetal bovine serum, 100 U/mL penicillin (Sigma-Aldrich, Burlington, MA, USA) and 100 µg/mL streptomycin (Sigma-Aldrich, Burlington, MA, USA). Cells were cultured in a humidified atmosphere at 37 °C and 5% CO2.
Leukemia or PBMC cells (2 × 10^5 cells/mL) were incubated for 24 h in both the absence and presence of compounds. PBMCs were also treated with vinblastine (Sigma-Aldrich, Burlington, MA, USA) for 24 h as the positive control. […]

[4] = test system: Jurkat (acute lymphoblastic leukemia); assay: Annexin V-FITC/PI cytotoxicity, concentration-response; type: cell-based; conditions: Homo sapiens, Jurkat cells, 24 h
Procedure: as §2, §3
(§4) Leukemia or PBMC cells (2 × 10^5 cells/mL) were incubated for 24 h in both the absence and presence of compounds. PBMCs were also treated with vinblastine (Sigma-Aldrich, Burlington, MA, USA) for 24 h as the positive control. Then, the cells were centrifuged and resuspended in binding buffer (0.01 M HEPES, pH 7.4, containing 0.14 M NaCl, and 2.5 mM CaCl2) and incubated at room temperature with annexin V-FITC (BD Biosciences, San Jose, CA, USA) and 5 µg/mL PI (Sigma-Aldrich, Burlington, MA, USA) for 20 min. Sample analysis was performed using an Accuri C6 flow cytometer (BD Biosciences, San Jose, CA, USA) with the acquisition value of 10,000 events.

[5] = test system: CCRF-CEM (acute lymphoblastic leukemia); assay: as above; type: cell-based; conditions: Homo sapiens, CCRF-CEM cells, 24 h
Procedure: as §2, §3, §4

cathepsin L [6] = molecular target: T2, cathepsin L; assay: Cathepsin L inhibition kinetics and mechanism; type: biochemical; conditions: Cat L; for Mec. (mechanism of inhibition): SLNC = simple linear non-competitive, SLC = simple linear competitive
Procedure: (§5) For every kinetic measurement, the compounds were pre-incubated with each enzyme for 10 min before adding the substrate. All kinetic assays were carried out in duplicate. Inhibition constants were determined using different equations, depending on the inhibition mechanism. The assumed KM values of cathepsin B and cathepsin L for Z-FR-AMC were 23.4 µM and 2 µM, respectively, as previously described. The data of the activity rate and substrate concentration generated rectangular hyperbolic profiles that were linearized using the Lineweaver–Burk/double reciprocal plot. The replot profiles of the slope vs inhibitor and intercept vs inhibitor provided the Ki and αKi parameters, respectively.

[7] = test system: PARP-1 cleavage in Jurkat cells; assay: Cleaved PARP by flow cytometry; type: cell-based, human; conditions: 12 h of treatment, EC50 of the compounds
Procedure: (§6) Jurkat and CCRF-CEM cells (2 × 10^5 cells/mL) were treated with C9 and C21 compounds for 12 h. Then, the cells were centrifuged, washed, fixed with 2% paraformaldehyde in PBS for 30 min and permeabilized with 0.01% saponin in PBS for 15 min at room temperature. Afterwards, the cells were incubated for 1 h at 37 °C with anti-cleaved-caspase 3-FITC monoclonal antibodies (Cell Signaling, Danvers, MA, USA) or mouse anti-cleaved PARP-PE/CF594 (Asp^214) antibodies (BD Biosciences, San Jose CA, USA). After incubation, the fluorescence was analyzed using an Accuri C6 flow cytometer (BD Biosciences, San Jose, CA, USA). A total of 10,000 events were acquired per sample.

[8] = test system: PARP-1 cleavage in CCRF-CEM cells; assay: Cleaved PARP by flow cytometry; type: cell-based, human; conditions: 12 h of treatment, EC50 of the compounds
Procedure: as §6

cathepsin B [9] = molecular target: T1, cathepsin B; assay: Cathepsin B inhibition kinetics and mechanism; type: biochemical; conditions: Cat B; for Mec. (mechanism of inhibition): SLNC = simple linear non-competitive, SLC = simple linear competitive
Procedure: as §5

[10] = test system: cleaved caspase-3 in Jurkat cells; assay: Cleaved caspase-3 by flow cytometry; type: cell-based, human; conditions: 12 h of treatment, EC50 of the compounds
Procedure: as §6

[11] = test system: cleaved caspase-3 in CCRF-CEM cells; assay: Cleaved caspase-3 by flow cytometry; type: cell-based, human; conditions: 12 h of treatment, EC50 of the compounds
Procedure: as §6

CCRF-CEM cells = assay: Cytochrome c release, confocal colocalization; type: cell-based, human; conditions: CCRF-CEM lineage after treatment; control cells 25–35%
Procedure: The release of cytochrome c from the mitochondria was estimated by using double-labeled confocal cell imaging with MitoTracker Green (Invitrogen, Waltham, MA, USA) and a cytochrome c antibody. Jurkat and CCRF-CEM cells (2 × 10^5 cells/mL) were incubated with C9 and C21 compounds for 12 h. Then, cells were incubated with 100 nM MitoTracker Green (Invitrogen, Waltham, MA, USA) for 30 min at 37 °C. Following this, cells were washed with PBS, fixed with 2% paraformaldehyde in PBS for 30 min and permeabilized with 0.01% saponin in PBS for 15 min. Then, the cells were incubated with a monoclonal rabbit antibody against human cytochrome c at 1:100 dilutions (0.5 μg/mL, Cell Signaling, Danvers, MA, USA) for 2 h at room temperature. […] Alexa Fluor 647 was excited using a HeNe laser (λEx = 633 nm) and its emissions were detected at 650–700 nm. MitoTracker Green was excited using an argon laser (λEx = 488 nm) and its emissions were detected at 500–550 nm. DAPI was excited with a diode laser (λEx = 405 nm) and its emissions were detected at […]. […]
The quantitative evaluation of colocalization was performed by using the percentage of colocalized between channels, which correspond to the pixels with red fluorescence and green or blue fluorescence. […] The colocalization coefficient was calculated using the Imaris software.

PBMCs = assay: Annexin V-FITC/PI cytotoxicity on healthy control cells; type: cell-based, human; conditions: for cytotoxicity to PBMCs compared with vinblastine: 24 h of exposure at different concentrations; for sensitivity of PBMCs compared with the tumor lineages: healthy control cells, 24 h
Description: Blood was collected using EDTA Vacuum Blood Collection Tubes. Peripheral blood mononuclear cells were isolated from three normal healthy individuals after they provided informed consent and after prior approval by the local Ethics Committee of University of Mogi das Cruzes (ethical appreciation number 72986617.3.0000.5497, and approval number 2.236.397). The fraction of mononuclear cells was separated from the blood by centrifugation with Ficoll-Histopaque-1077 (density 1.077 g/mL, Sigma-Aldrich, Burlington, MA, USA) at 400× g for 30 min. Mononuclear cells were maintained in 100 U/mL penicillin and […] streptomycin in an incubator with a humidified atmosphere at 37 °C and 5% CO2.
as §4, with “events. […]” for “events.”
Figure S3. Concentration-response curve of cytotoxicity of compounds C9, C21 and vinblastine on PBMCs. PBMCs cells were cultured (2x10^5 cells/mL) on 96-well microplates. The cells were treated with compounds C9 ([…]) and C21 (≤), and vinblastine ([…]) (Sigma-Aldrich, Germany) for 24 h. After, the cells were labeled with Annexin V-FITC and 5 μg/mL PI. The results were expressed as percent-age. The data are the mean ± SEM of 3 experiments performed in duplicate.

[12] = test system: Kasumi-1 (acute myeloblastic leukemia); assay: Annexin V-FITC/PI cytotoxicity, concentration-response; type: cell-based; conditions: Homo sapiens, Kasumi cells, 24 h
Procedure: as §2, §3, §4

[13] = test system: K562 (chronic myeloblastic leukemia); assay: as above; type: cell-based; conditions: Homo sapiens, K562 cells, 24 h
Procedure: as §2, §3, §4

[14] = test system: ARH-77 (plasma cell leukemia); assay: as above; type: cell-based; conditions: Homo sapiens, ARH-77 cells, 24 h
Procedure: as §2, §3, §4

[15] = test system: T-cell lymphomas lineages; parameters: method as in PMID 24225136; conditions: cited from earlier work

T2 sequence (P07711 114-333): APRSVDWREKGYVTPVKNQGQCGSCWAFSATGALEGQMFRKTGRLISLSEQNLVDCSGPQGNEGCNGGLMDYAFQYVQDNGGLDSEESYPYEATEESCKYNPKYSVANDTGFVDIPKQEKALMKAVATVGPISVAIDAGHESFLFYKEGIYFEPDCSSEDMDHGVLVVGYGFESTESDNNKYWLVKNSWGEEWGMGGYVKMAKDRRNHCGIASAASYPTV

IC50 (cathepsin B [1]) [µM] | IC50 (cathepsin L [2]) [µM] | Ki (cathepsin L [6]) [µM] | αKi (cathepsin L [6]) [µM] | Ki (cathepsin B [9]) [µM] | Structure (SMILES) | EC50 [4] [µM] | EC50 [5] [µM] | PARP-1 cleavage [7] | PARP-1 cleavage [8] | cleaved caspase-3 [10] | cleaved caspase-3 [11] | colocalization coefficient between the green and red channel (CCRF-CEM cells) | cytotoxicity to PBMCs compared with vinblastine (PBMCs) | sensitivity of PBMCs compared with the tumor lineages (PBMCs) | EC50 [12] [µM] | EC50 [13] [µM] | EC50 [14] [µM] | further results
7.5 ± 0.1 | 10.5 ± 0.2 |  |  |  | CCCCCCCCCCCCCCCCOP(=O)([O-])OCC[N+](C)(C)C [Compound 1, hexadecyl 2-(trimethylazaniumyl)ethyl phosphate, reference compound] | 186 ± 12 | 120 ± 3 |  |  |  |  |  |  |  |  |  |  | EC50 ([3]; against the studied lines): 120 to 200 µM
3.5 ± 0.2 | 1.3 ± 0.1 | 3.56 ± 0.26 | 3.66 ± 0.07 | 15.3 ± 0.6 | OCCCc1cn(CCCCCCCCCCCCI)nn1 [Compound 9] | 63 ± 1 | 40 ± 1.2 | observed | did not occur | increase | less intense | 30–40% | less cytotoxic than vinblastine | significantly less sensitive | > 140 | > 140 | 71 ± 0.8 | Mec. (mechanism of inhibition) (cathepsin L [6]; listed as C9): simple linear noncompetitive inhibition and SLNC; α (cathepsin L [6]; listed as C9): 1; Mec. (mechanism of inhibition) (cathepsin B [9]; listed as C9): simple linear competitive inhibition and SLC; EC50 ([3]; in Jurkat and CCRF-CEM lineages): 40 to 70 µM
3.9 ± 0.2 | 1.6 ± 0.1 | 9.72 ± 1.23 | 10.47 ± 1.17 | 27.4 ± 1.2 | CC(=O)OCCCc1cn(CCCCCCCCCCCCOS(C)(=O)=O)nn1 [Compound 21] | 77 ± 1.5 | 60 ± 2 | observed | did not occur | increase | less intense | 30–40% | less cytotoxic than vinblastine | significantly less sensitive | > 140 | > 140 | 96 ± 1 | Mec. (mechanism of inhibition) (cathepsin L [6]; listed as C21): simple linear noncompetitive inhibition and SLNC; α (cathepsin L [6]; listed as C21): 1; α (cathepsin B [9]): 1.6; αKi (cathepsin B [9]): 43.9 ± 1.7 µM; Mec. (mechanism of inhibition) (cathepsin B [9]; listed as C21): simple linear noncompetitive inhibition and SLNC
 |  |  |  |  | CCCCCCCC/C=C\CCCCCCCCCCCCOP(=O)([O-])OCC[N+](C)(C)C [erufosine] |  |  |  |  |  |  |  |  |  |  |  |  | EC50 [15]: ~60 µM
